Patent publication US20260356819A1, “OXOISOINDOLINYL-SUBSTITUTED […] DERIVATIVE AND USE THEREOF” (GLUETACS THERAPEUTICS (SHANGHAI) CO., LTD., priority 2023, published 2026)

Legend:
Type in all cases: cell-based
Conditions in all cases: compounds at 50 nM and 500 nM
WEE1 = molecular target: T1, WEE1 (Homo sapiens, UniProt P30291+Q96SW2); test: Western blot degradation of WEE1 in hPBMCs (24 h)
T1 construct: The supernatant was aspirated as the extracted total cell protein; endogenous in cells; host or cells: human peripheral blood mononuclear cells (hPBMCs)
T1 sequence (P30291 whole entry): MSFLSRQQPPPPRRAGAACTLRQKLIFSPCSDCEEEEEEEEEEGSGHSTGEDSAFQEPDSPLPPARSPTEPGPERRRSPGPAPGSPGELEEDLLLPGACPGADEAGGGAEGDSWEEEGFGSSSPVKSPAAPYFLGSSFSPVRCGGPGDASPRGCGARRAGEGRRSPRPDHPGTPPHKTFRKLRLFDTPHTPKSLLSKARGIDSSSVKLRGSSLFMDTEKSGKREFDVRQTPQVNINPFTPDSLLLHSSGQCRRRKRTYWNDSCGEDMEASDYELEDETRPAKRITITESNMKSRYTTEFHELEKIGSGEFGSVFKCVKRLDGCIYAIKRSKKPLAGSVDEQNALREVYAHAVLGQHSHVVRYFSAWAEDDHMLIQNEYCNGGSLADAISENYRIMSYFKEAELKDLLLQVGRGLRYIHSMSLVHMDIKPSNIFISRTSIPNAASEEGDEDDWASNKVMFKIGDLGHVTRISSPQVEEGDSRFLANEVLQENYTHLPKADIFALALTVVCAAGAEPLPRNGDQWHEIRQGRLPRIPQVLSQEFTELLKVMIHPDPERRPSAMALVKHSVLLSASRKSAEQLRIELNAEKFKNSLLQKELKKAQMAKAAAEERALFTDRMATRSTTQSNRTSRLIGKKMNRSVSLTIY
T1 sequence (Q96SW2 whole entry): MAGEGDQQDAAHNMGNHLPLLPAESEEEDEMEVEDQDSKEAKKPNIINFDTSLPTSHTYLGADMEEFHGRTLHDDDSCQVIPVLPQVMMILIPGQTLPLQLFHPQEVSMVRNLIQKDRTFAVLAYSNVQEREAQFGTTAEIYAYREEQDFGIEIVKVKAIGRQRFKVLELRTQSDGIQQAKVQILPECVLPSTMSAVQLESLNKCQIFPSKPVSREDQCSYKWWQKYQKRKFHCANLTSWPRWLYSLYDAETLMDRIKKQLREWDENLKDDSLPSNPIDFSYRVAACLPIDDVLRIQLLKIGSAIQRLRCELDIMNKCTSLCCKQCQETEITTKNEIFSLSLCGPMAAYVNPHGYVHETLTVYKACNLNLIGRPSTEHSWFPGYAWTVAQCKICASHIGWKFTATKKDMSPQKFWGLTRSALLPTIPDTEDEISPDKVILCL
T1 sequence (Q16531 whole entry partner): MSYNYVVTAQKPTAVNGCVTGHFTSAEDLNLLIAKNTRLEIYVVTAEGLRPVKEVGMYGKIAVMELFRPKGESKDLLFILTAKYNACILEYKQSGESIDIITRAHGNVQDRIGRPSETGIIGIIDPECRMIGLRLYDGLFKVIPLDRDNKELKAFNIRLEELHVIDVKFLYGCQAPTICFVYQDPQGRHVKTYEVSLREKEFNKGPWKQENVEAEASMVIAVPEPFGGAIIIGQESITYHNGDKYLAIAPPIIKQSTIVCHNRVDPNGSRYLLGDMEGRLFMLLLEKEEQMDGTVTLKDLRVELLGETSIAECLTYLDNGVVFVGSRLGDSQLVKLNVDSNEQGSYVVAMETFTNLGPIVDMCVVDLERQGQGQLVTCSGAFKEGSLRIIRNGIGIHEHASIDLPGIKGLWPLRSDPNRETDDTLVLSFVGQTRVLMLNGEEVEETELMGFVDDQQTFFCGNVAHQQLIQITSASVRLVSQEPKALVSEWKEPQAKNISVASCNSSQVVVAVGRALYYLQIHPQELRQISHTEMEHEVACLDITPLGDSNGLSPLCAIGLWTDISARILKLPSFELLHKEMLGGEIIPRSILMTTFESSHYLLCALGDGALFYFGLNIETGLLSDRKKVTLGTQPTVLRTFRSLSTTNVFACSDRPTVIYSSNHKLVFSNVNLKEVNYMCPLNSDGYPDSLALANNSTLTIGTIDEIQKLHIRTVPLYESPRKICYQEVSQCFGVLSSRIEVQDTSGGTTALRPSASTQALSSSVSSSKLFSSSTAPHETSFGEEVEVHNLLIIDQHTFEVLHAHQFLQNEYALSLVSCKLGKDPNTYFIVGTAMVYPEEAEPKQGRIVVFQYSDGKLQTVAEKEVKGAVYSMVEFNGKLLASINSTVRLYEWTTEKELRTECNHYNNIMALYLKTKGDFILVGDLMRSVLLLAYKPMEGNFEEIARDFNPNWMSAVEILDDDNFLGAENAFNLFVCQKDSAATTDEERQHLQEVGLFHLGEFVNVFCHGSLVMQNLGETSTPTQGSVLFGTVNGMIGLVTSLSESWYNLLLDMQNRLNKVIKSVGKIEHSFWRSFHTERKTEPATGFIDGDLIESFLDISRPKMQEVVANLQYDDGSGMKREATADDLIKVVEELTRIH
In short: (§1)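 Western blot densitometry after 24 h treatment of human PBMCs (1×10^6 cells/mL) with 50 nM or 500 nM compound. Remaining target (%) = band intensity over internal-control band, normalized to DMSO; degradation = 1 − remaining; DC50 is the concentration giving half the DMSO band signal.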

IKZF1 = molecular target: T2, IKZF1 (Homo sapiens, UniProt Q13422+Q96SW2); test: Western blot degradation of IKZF1 in hPBMCs (24 h)
T2 construct: The supernatant was aspirated as the extracted total cell protein; endogenous in cells; host or cells: human peripheral blood mononuclear cells (hPBMCs)
In short: as §1

IKZF2 = molecular target: T3, IKZF2 (Homo sapiens, UniProt Q96SW2+Q9UKS7); test: Western blot degradation of IKZF2 in hPBMCs (24 h)
T3 construct: The supernatant was aspirated as the extracted total cell protein; endogenous in cells; host or cells: human peripheral blood mononuclear cells (hPBMCs)
T3 sequence (Q9UKS7 whole entry): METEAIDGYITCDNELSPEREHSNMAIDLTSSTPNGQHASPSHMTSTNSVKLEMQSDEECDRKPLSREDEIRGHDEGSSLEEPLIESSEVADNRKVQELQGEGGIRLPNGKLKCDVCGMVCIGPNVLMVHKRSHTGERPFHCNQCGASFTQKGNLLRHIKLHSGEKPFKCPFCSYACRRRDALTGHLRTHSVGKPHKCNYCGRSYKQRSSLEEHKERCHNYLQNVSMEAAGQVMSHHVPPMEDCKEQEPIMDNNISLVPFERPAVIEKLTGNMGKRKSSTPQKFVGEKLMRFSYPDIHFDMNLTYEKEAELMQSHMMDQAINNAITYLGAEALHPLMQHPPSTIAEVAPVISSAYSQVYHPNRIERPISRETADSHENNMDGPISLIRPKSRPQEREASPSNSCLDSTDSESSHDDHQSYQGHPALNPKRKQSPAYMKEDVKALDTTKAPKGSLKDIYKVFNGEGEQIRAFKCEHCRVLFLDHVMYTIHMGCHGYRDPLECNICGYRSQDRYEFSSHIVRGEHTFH
T3 sequence (Q96SW2 whole entry): as the sequence (Q96SW2 whole entry) above
T3 sequence (Q16531 whole entry partner): as the sequence (Q16531 whole entry partner) above
In short: as §1

IKZF3 = molecular target: T4, IKZF3 (Homo sapiens, UniProt Q96SW2+Q9UKT9); test: Western blot degradation of IKZF3 in hPBMCs (24 h)
T4 construct: The supernatant was aspirated as the extracted total cell protein; endogenous in cells; host or cells: human peripheral blood mononuclear cells (hPBMCs)
T4 sequence (Q9UKT9 whole entry): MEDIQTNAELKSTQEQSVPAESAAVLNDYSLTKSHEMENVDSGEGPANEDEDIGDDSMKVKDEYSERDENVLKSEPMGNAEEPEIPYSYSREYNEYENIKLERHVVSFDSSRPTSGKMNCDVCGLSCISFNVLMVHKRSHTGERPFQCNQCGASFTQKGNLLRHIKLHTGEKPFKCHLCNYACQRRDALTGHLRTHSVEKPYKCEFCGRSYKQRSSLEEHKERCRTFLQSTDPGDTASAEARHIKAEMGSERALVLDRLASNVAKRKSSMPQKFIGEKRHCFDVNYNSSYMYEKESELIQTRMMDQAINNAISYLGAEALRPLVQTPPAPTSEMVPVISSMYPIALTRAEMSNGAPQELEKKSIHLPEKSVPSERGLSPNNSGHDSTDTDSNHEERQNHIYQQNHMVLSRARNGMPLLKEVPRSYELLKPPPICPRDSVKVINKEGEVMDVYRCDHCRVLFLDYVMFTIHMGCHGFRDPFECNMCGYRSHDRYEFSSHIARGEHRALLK
T4 sequence (Q96SW2 whole entry): as the sequence (Q96SW2 whole entry) above
T4 sequence (Q16531 whole entry partner): as the sequence (Q16531 whole entry partner) above
In short: as §1

CK1α = molecular target: T5, CK1α (Homo sapiens, UniProt P48729+Q96SW2); test: Western blot degradation of CK1α in hPBMCs (24 h)
T5 construct: The supernatant was aspirated as the extracted total cell protein; endogenous in cells; host or cells: human peripheral blood mononuclear cells (hPBMCs)
T5 sequence (P48729 whole entry): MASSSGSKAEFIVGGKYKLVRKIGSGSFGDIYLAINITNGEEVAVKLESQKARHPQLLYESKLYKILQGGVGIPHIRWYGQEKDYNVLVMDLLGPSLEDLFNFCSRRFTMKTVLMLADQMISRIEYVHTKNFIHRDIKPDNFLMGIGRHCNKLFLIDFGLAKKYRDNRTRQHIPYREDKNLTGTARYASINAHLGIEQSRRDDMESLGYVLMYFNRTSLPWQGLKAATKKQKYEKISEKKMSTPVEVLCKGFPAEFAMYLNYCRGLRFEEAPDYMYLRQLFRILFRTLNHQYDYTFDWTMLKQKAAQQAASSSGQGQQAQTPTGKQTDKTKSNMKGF
T5 sequence (Q96SW2 whole entry): as the sequence (Q96SW2 whole entry) above
T5 sequence (Q16531 whole entry partner): as the sequence (Q16531 whole entry partner) above
In short: as §1

GSPT1 = molecular target: T6, GSPT1 (Homo sapiens, UniProt P15170+Q96SW2); test: Western blot degradation of GSPT1 in hPBMCs (24 h)
T6 construct: The supernatant was aspirated as the extracted total cell protein; endogenous in cells; host or cells: human peripheral blood mononuclear cells (hPBMCs)
T6 sequence (P15170 whole entry): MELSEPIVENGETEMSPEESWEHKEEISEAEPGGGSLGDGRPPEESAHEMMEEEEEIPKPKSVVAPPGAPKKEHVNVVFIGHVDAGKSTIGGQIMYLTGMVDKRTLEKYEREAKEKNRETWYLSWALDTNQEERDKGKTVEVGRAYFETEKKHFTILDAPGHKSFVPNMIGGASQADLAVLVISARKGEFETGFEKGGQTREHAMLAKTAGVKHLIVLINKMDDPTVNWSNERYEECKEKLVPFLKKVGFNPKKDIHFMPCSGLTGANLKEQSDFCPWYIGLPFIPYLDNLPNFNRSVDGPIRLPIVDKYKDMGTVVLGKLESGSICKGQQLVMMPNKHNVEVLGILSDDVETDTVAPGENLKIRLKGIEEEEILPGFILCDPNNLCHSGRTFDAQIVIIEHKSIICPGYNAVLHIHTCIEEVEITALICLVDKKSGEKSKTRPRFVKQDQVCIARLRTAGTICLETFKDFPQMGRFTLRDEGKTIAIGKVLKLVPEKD
T6 sequence (Q96SW2 whole entry): as the sequence (Q96SW2 whole entry) above
T6 sequence (Q16531 whole entry partner): as the sequence (Q16531 whole entry partner) above
In short: as §1

Structure (SMILES)	WEE1 substrate protein remaining % (WEE1)	IKZF1 substrate protein remaining % (IKZF1)	IKZF2 substrate protein remaining % (IKZF2)	IKZF3 substrate protein remaining % (IKZF3)	CK1α substrate protein remaining % (CK1α)	GSPT1 substrate protein remaining % (GSPT1)
O=C1CCN(N2C(=O)c3ccc(CN4CCC(c5ccccc5C(F)(F)F)CC4)cc3C2=O)C(=O)N1 [GT-06879, 2-(2,4-dioxotetrahydropyrimidin-1(2H)-yl)-5-((4-(2-(trifluoromethyl)phenyl)piperidin-1-yl)methyl)isoindoline-1,3-dione]	B (80%< substrate protein remaining % ≤100%)	B (80%< substrate protein remaining % ≤100%)	B (80%< substrate protein remaining % ≤100%)	B (80%< substrate protein remaining % ≤100%)	B (80%< substrate protein remaining % ≤100%)	A (0% ≤ substrate protein remaining % ≤80%)
O=C1CCN(N2C(=O)c3ccc(CN4CCC(c5cccc(C(F)(F)F)c5)CC4)cc3C2=O)C(=O)N1 [GT-06880, 2-(2,4-dioxotetrahydropyrimidin-1(2H)-yl)-5-((4-(3-(trifluoromethyl)phenyl)piperidin-1-yl)methyl)isoindoline-1,3-dione]	A (0% ≤ substrate protein remaining % ≤80%)	B (80%< substrate protein remaining % ≤100%)	B (80%< substrate protein remaining % ≤100%)	B (80%< substrate protein remaining % ≤100%)	B (80%< substrate protein remaining % ≤100%)	B (80%< substrate protein remaining % ≤100%)
Cc1ccc(N2CCN(Cc3ccc4c(c3)CN(N3CCC(=O)NC3=O)C4=O)CC2)c(C)c1 [GT-06882, 1-(5-((4-(2,4-dimethylphenyl)piperazin-1-yl)methyl)-1-oxoisoindolin-2-yl)dihydropyrimidine-2,4(1H,3H)-dione]	A (0% ≤ substrate protein remaining % ≤80%)	A (0% ≤ substrate protein remaining % ≤80%)	B (80%< substrate protein remaining % ≤100%)	B (80%< substrate protein remaining % ≤100%)	B (80%< substrate protein remaining % ≤100%)	A (0% ≤ substrate protein remaining % ≤80%)
Cc1ccc(Cl)cc1N1CCN(Cc2ccc3c(c2)CN(N2CCC(=O)NC2=O)C3=O)CC1 [GT-06883, 1-(5-((4-(5-chloro-2-methylphenyl)piperazin-1-yl)methyl)-1-oxoisoindolin-2-yl)dihydropyrimidine-2,4(1H,3H)-dione]	A (0% ≤ substrate protein remaining % ≤80%)	A (0% ≤ substrate protein remaining % ≤80%)	B (80%< substrate protein remaining % ≤100%)	B (80%< substrate protein remaining % ≤100%)	B (80%< substrate protein remaining % ≤100%)	A (0% ≤ substrate protein remaining % ≤80%)
O=C1CCN(N2Cc3cc(CN4CCC(c5ccc(Br)cc5)CC4)ccc3C2=O)C(=O)N1 [GT-06886, 1-(5-((4-(4-bromophenyl)piperidin-1-yl)methyl)-1-oxoisoindolin-2-yl)dihydropyrimidine-2,4(1H,3H)-dione]	B (80%< substrate protein remaining % ≤100%)	B (80%< substrate protein remaining % ≤100%)	A (0% ≤ substrate protein remaining % ≤80%)	B (80%< substrate protein remaining % ≤100%)	B (80%< substrate protein remaining % ≤100%)	A (0% ≤ substrate protein remaining % ≤80%)
O=C1CCN(N2Cc3cc(CN4CCC(c5ccccc5Cl)CC4)ccc3C2=O)C(=O)N1 [GT-06887, 1-(5-((4-(2-chlorophenyl)piperidin-1-yl)methyl)-1-oxoisoindolin-2-yl)dihydropyrimidine-2,4(1H,3H)-dione]	A (0% ≤ substrate protein remaining % ≤80%)	B (80%< substrate protein remaining % ≤100%)	A (0% ≤ substrate protein remaining % ≤80%)	B (80%< substrate protein remaining % ≤100%)	B (80%< substrate protein remaining % ≤100%)	A (0% ≤ substrate protein remaining % ≤80%)
O=C1CCN(N2Cc3cc(CN4CCC(c5ccc(Cl)cc5)CC4)ccc3C2=O)C(=O)N1 [GT-06888, 1-(5-((4-(4-chlorophenyl)piperidin-1-yl)methyl)-1-oxoisoindolin-2-yl)dihydropyrimidine-2,4(1H,3H)-dione]	A (0% ≤ substrate protein remaining % ≤80%)	B (80%< substrate protein remaining % ≤100%)	A (0% ≤ substrate protein remaining % ≤80%)	B (80%< substrate protein remaining % ≤100%)	B (80%< substrate protein remaining % ≤100%)	A (0% ≤ substrate protein remaining % ≤80%)
O=C1CCN(N2Cc3cc(CN4CCC(c5ccccc5F)CC4)ccc3C2=O)C(=O)N1 [GT-06889, 1-(5-((4-(2-fluorophenyl)piperidin-1-yl)methyl)-1-oxoisoindolin-2-yl)dihydropyrimidine-2,4(1H,3H)-dione]	A (0% ≤ substrate protein remaining % ≤80%)	B (80%< substrate protein remaining % ≤100%)	A (0% ≤ substrate protein remaining % ≤80%)	B (80%< substrate protein remaining % ≤100%)	B (80%< substrate protein remaining % ≤100%)	A (0% ≤ substrate protein remaining % ≤80%)
O=C1CCN(N2Cc3cc(CN4CCC(c5ccc(F)cc5)CC4)ccc3C2=O)C(=O)N1 [GT-06890, 1-(5-((4-(4-fluorophenyl)piperidin-1-yl)methyl)-1-oxoisoindolin-2-yl)dihydropyrimidine-2,4(1H,3H)-dione]	A (0% ≤ substrate protein remaining % ≤80%)	B (80%< substrate protein remaining % ≤100%)	B (80%< substrate protein remaining % ≤100%)	B (80%< substrate protein remaining % ≤100%)	B (80%< substrate protein remaining % ≤100%)	A (0% ≤ substrate protein remaining % ≤80%)
O=C1CCN(N2Cc3cc(CN4CCC(c5ccccc5C(F)(F)F)CC4)ccc3C2=O)C(=O)N1 [GT-06891, 1-(1-oxo-5-((4-(2-(trifluoromethyl)phenyl)piperidin-1-yl)methyl)isoindolin-2-yl)dihydropyrimidine-2,4(1H,3H)-dione]	A (0% ≤ substrate protein remaining % ≤80%)	B (80%< substrate protein remaining % ≤100%)	A (0% ≤ substrate protein remaining % ≤80%)	B (80%< substrate protein remaining % ≤100%)	B (80%< substrate protein remaining % ≤100%)	A (0% ≤ substrate protein remaining % ≤80%)
O=C1CCN(N2C(=O)c3ccc(CN4CCC(c5cccc(F)c5Cl)CC4)cc3C2=O)C(=O)N1 [GT-06895, 5-((4-(2-chloro-3-fluorophenyl)piperidin-1-yl)methyl)-2-(2,4-dioxotetrahydropyrimidin-1(2H)-yl)isoindoline-1,3-dione]	B (80%< substrate protein remaining % ≤100%)	A (0% ≤ substrate protein remaining % ≤80%)	B (80%< substrate protein remaining % ≤100%)	B (80%< substrate protein remaining % ≤100%)	B (80%< substrate protein remaining % ≤100%)	B (80%< substrate protein remaining % ≤100%)
O=C1CCN(N2C(=O)c3ccc(CN4CC=C(c5cccc(F)c5Cl)CC4)cc3C2=O)C(=O)N1 [GT-06896, 5-((4-(2-chloro-3-fluorophenyl)-3,6-dihydropyridin-1(2H)-yl)methyl)-2-(2,4-dioxotetrahydropyrimidin-1(2H)-yl)isoindoline-1,3-dione]	B (80%< substrate protein remaining % ≤100%)	A (0% ≤ substrate protein remaining % ≤80%)	B (80%< substrate protein remaining % ≤100%)	B (80%< substrate protein remaining % ≤100%)	B (80%< substrate protein remaining % ≤100%)	B (80%< substrate protein remaining % ≤100%)
O=C1CCN(N2C(=O)c3ccc(CN4CCN(c5ccc(F)cn5)CC4)cc3C2=O)C(=O)N1 [GT-06965, 2-(2,4-dioxotetrahydropyrimidin-1(2H)-yl)-5-((4-(5-fluoropyridin-2-yl)piperazin-1-yl)methyl)isoindoline-1,3-dione]	B (80%< substrate protein remaining % ≤100%)	B (80%< substrate protein remaining % ≤100%)	A (0% ≤ substrate protein remaining % ≤80%)	B (80%< substrate protein remaining % ≤100%)	B (80%< substrate protein remaining % ≤100%)	B (80%< substrate protein remaining % ≤100%)
